Measurements reported in ChEMBL document CHEMBL1201862, “PubChem BioAssay data set” (2004).
Calls of active or inactive are those of the source.

Assays:
[1] = target: T1, DNA repair protein RAD52 homolog (Homo sapiens, UniProt P43351); assay type: functional, biochemical
T1 sequence (P43351 whole entry): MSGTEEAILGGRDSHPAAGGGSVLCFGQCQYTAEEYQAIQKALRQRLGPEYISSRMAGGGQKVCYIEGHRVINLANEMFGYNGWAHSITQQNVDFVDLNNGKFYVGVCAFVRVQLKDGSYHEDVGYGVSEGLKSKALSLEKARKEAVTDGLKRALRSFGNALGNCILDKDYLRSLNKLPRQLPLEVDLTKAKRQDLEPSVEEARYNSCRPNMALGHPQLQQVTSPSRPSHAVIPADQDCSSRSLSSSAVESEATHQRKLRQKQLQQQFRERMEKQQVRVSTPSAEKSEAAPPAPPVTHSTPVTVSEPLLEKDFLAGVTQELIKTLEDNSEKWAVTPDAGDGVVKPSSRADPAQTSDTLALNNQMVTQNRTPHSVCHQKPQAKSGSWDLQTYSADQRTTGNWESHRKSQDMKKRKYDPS

[2] = inhibitors of HIV Env-driven cell fusion, dose response, cherry-pick (AID 652057); assay type: functional, cell-based
[3] = off-target signal loss in HeLa-CEM21 co-culture – HeLa F-luc CTL cells, cherry-picked, counter-screen for HIV-1 Env fusion inhibitor project, dose response (AID 652040); assay type: functional, cell-based;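 further: potency for signal decrease marking cytotoxic or nonspecific inhibition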
[4] = ZM109 Env clade C HIV-1 fusion inhibitors, dose response, HeLa effector, CEM target cells, luciferase, cherry-pick (AID 652058); assay type: functional, cell-based
[5] = inhibitors of clade B AD8 Env fusion, dose response, cell-based, cherry-pick (AID 652062); assay type: functional;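 further: luciferase signal from cell-cell fusion driven by HIV-1 clade B AD8 Env; potency is for inhibitors of fusion seen as a drop in luminescence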
[6] = Luminescence Cell-Based Dose Response HTS to Identify Inhibitors of 5'UTR Stem-Loop Driven Prion Protein mRNA Translation in H4 Neuroglioblastoma Cells. [Related pubchem assays: 1827 (Project Summary), 1813 (Primary HTS)]; assay type: functional
BJ [7] = experiment: cytotoxicity toward BJ-TERT-LT-ST fibroblasts, dose response, cell-based, RAS-independent, luminescence (AID 1935); assay type: functional; conditions: Homo sapiens;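 further: BJ fibroblasts immortalized with TERT plus LT and ST oncogenes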
[8] = inhibitors of SNCA 5'UTR-driven reporter translation, confirmation, H4 neuroglioma cells, luminescence (AID 1988); assay type: functional, cell-based
BJ [9] = experiment: cytotoxicity toward BJ-TERT fibroblasts, dose response, cell-based, RAS-independent, luminescence (AID 1933); assay type: functional; conditions: Homo sapiens
[10] = cytotoxicity toward DRD oncogenic fibroblasts, dose response, cell-based, non-viral oncogenic, luminescence (AID 1934); assay type: functional; conditions: Homo sapiens
[11] = inhibitors of firefly luciferase expression or activity, dose response, H4 neuroglioma cells, luminescence (AID 1990); assay type: functional, cell-based
BJ [12] = experiment: cells; assay type: functional, cell-based; conditions: Homo sapiens
[13] = HepG2 cell cytotoxicity, dose response, cytotoxicity control, cherry-picked samples (AID 1159577); assay type: functional, cell-based
Paired box protein Pax-8 = Paired box protein Pax-8 (Homo sapiens, UniProt Q06710); experiment: inhibitors of PAX8-driven TPO luciferase reporter, dose response, RMG-I cells, cherry-pick (AID 687027); assay type: functional, cell-based;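 further: luciferase reporter driven by Pax8 target thyroperoxidase promoter measured by SteadyGlo luminescence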
Chain of Paired box protein Pax-8 (Q06710 whole entry): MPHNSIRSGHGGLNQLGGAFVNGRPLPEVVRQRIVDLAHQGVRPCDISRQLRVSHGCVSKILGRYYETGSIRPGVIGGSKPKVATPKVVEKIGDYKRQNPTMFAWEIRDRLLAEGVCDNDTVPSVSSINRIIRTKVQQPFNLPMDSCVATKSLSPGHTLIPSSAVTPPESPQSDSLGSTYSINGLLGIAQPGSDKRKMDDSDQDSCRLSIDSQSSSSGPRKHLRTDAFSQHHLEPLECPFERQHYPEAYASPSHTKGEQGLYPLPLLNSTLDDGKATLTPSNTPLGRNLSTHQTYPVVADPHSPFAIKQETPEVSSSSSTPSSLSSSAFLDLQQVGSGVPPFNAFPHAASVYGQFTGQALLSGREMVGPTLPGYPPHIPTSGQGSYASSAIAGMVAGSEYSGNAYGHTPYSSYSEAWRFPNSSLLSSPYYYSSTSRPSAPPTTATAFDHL

[14] = P. falciparum Dd2 growth inhibitors, dose response, SYBR Green, cherry-picked samples (AID 1159567); assay type: functional, cell-based
[15] = target: T2, Long-chain-fatty-acid--AMP ligase FadD28 (Mycobacterium tuberculosis, UniProt P9WQ59); experiment: Fluorescence polarization aasay to screen for inhibitors that compete for the binding of FadD28 to a bisubstrate Measured in Biochemical System Using Plate Reader - 2147-01_Inhibitor_Dose_CherryPick_Activity.; assay type: functional, Mycobacterium tuberculosis H37Rv
T2 sequence (P9WQ59 whole entry): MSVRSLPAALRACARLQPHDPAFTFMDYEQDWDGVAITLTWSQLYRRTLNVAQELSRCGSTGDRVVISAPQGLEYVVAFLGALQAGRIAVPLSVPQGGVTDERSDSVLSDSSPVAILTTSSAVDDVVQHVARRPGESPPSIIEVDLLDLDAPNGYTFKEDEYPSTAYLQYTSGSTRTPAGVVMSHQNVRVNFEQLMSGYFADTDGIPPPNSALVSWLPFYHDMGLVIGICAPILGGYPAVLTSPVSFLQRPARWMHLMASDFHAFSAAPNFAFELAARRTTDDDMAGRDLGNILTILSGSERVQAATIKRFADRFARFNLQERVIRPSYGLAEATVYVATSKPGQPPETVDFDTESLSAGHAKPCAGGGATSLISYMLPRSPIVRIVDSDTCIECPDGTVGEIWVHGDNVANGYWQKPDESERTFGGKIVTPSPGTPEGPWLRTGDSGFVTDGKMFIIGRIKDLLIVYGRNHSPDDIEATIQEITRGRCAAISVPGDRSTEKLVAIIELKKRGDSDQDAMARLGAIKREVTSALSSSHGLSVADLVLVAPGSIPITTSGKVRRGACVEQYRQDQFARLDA

[16] = target: Dual specificity tyrosine-phosphorylation-regulated kinase 1A (Rattus norvegicus, UniProt Q63470); assay type: biochemical, Homo sapiens
cells = assay type: functional
[17] = Shn3 3'UTR reporter inhibitors, dose response, cell-based, Clone20 osteoblasts, firefly luciferase, cherry-picked (AID 624132); assay type: functional;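 further: firefly luciferase luminescence from reporter carrying the Shn3 3'UTR in osteoblasts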
[18] = control 3'UTR Renilla luciferase suppression, dose response, counter-screen for Shn3 inhibitor project, cell-based, Clone20-Shn3RL, cherry-picked (AID 624133); assay type: functional
[19] = HepG2 cell cytotoxicity, dose response, cytotoxicity control for Shn3 inhibitor project, CellTiter-Glo, cherry-picked (AID 624134); assay type: functional, cell-based
[20] = cytotoxicity in HEK-293T cells, dose response, cytotoxicity control for TCR NF-kB inhibitor project, luminescence, T-cell screen hits (AID 489026); assay type: functional, cell-based;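 further: cells exposed to compound about 14 hours before the viability readout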
Caspase-6 = target: T3, Caspase-6 (Homo sapiens, UniProt P55212); experiment: human caspase-6 inhibitors, dose response, biochemical, VEID-R110 fluorescence, cherry-pick (AID 720632)
T3 sequence (P55212 whole entry): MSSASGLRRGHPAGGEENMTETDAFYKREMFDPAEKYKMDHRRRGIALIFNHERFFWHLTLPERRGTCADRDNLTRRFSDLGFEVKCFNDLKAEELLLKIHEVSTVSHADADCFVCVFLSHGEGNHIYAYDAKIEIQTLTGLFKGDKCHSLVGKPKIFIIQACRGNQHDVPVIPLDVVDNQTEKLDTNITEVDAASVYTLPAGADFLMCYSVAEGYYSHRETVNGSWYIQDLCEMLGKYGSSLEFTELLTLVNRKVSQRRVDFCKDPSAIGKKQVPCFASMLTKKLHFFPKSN

[21] = target: T4, Carboxy-terminal domain RNA polymerase II polypeptide A small phosphatase 1 (Homo sapiens, UniProt Q9GZU7); experiment: inhibitors of CTDSP1, concentration-response testing, biochemical assay, absorbance-based, actives from ultra-high-throughput screening (AID 540297); assay type: functional
T4 sequence (Q9GZU7 whole entry): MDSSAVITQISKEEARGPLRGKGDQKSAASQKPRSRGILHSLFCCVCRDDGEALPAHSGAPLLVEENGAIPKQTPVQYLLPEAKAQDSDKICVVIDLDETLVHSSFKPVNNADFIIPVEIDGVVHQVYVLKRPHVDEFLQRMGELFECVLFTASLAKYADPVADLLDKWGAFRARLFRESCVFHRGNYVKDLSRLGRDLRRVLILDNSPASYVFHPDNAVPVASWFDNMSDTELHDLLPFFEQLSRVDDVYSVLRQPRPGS

Cc1cc(N2CCN(C)CC2)nc2ccc(NC(S)=NCc3cccs3)cc12
AC50 [1]: 17 µM (active)

CC[C@@]1(C(=O)OC)N[C@H](CN(C)S(=O)(=O)c2ccc(-c3ccccc3)cc2)[C@@H]2C(=O)N(Cc3ccccc3)C(=O)[C@@H]21
AC50 [2]: 2.09 µM (active) | AC50 [3]: 2.61 µM (active) | AC50 [4]: 2.28 µM (active) | AC50 [5]: 2.54 µM (active)

CCN1C(=O)/C(=C\N2CCN(c3ccc(F)cc3)CC2)SC1=S
EC50 [6]: > 120 µM (not active) | EC50 (BJ [7]): > 150 µM (not active) | EC50 [8]: > 120 µM (not active) | EC50 (BJ [9]): 81.2 µM (active) | EC50 [10]: > 150 µM (not active) | EC50 [11]: 16.1 µM (active) | EC50 (BJ [12]): > 150 µM (not active)

C[C@@H]1CN([C@@H](C)CO)C(=O)Cc2cc(NC(=O)Nc3ccc(F)cc3)ccc2O[C@H]1CN(C)CC1CCCCC1
AC50 [13]: 10.9 µM (active) | AC50 (Paired box protein Pax-8): 20.4 µM (active) | AC50 [14]: 7.86 µM (active)

Cc1ccc(NC(=O)Nc2sc(=S)n(C)c2C)cc1
AC50 [15]: > 100 µM (inactive)

Cc1ccc2[nH]c(/C(C#N)=C\c3cc(O)ccc3[N+](=O)[O-])nc2c1
AC50 [16]: 1.82 µM (active)

CCCCn1c(=O)c(C(=O)Nc2nnc(C(C)C)s2)c(O)c2ccccc21
IC50 (cells): 5.24 µM (active)

COc1ccc(CCNc2cc(N3CCN(C(=O)c4ccccc4F)CC3)ccc2[N+](=O)[O-])cc1OC
AC50 [17]: 1.26 µM (active) | AC50 [18]: 0.811 µM (active) | AC50 [19]: 0.845 µM (active) | IC50 [20]: > 80 µM (inactive)

O=C(O)C1C2C=CC(C2)C1C(=O)Nc1ccccc1Br (centres undefined)
AC50 (Caspase-6): 6.78 µM (active) | IC50 [21]: 16.7 µM (active)

O=C(CC(SCCO)c1ccc2c(c1)OCO2)c1ccco1 (centres undefined)
AC50 [16]: 0.563 µM (active)

CCO/C=C1/C(=O)N(c2ccccc2OC)C(=O)c2ccccc21
AC50 (Caspase-6): 13.9 µM (active)

O=C(C1CCCC1)N1C[C@@H]2N[C@H](C1)[C@@H]2c1ccc(/C=C/c2ccccc2)cc1
AC50 [13]: 7.79 µM (active) | AC50 [14]: 4.23 µM (active)

CCNc1ncnc2c1cnn2C1CCCO1 (centres undefined)
AC50 [4]: 13.5 µM (active)
